The text below walks through data of patent US20240158446A1, “CYCLIC COMPOUND HAVING SELECTIVE INHIBITORY ACTION ON KRAS OVER HRAS AND NRAS” (CHUGAI SEIYAKU KABUSHIKI KAISHA, priority 2021, published 2024).

In experiment [1] the target is GDP-bound KRAS wild-type protein (Homo sapiens, UniProt P01116). Kind of experiment: Binding to KRAS by surface plasmon resonance (SPR), Single Cycle Kinetics. To be noted: SPR, Single Cycle Kinetics, GDP-bound KRAS wild-type protein; read-out: KRAS KD. (In general: Surface plasmon resonance follows binding to a sensor surface in real time, without labels.)
Sequence of GDP-bound KRAS wild-type protein (P01116 whole entry): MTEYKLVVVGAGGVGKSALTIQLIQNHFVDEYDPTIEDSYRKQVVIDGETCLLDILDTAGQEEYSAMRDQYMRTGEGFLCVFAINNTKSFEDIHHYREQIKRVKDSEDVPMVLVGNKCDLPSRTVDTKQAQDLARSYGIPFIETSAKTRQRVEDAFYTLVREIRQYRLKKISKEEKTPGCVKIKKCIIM
The target in experiment [2] is GDP-bound NRAS wild-type protein (Homo sapiens, UniProt P01111). Kind of experiment: Binding to NRAS by surface plasmon resonance (SPR), Single Cycle Kinetics. To be noted: SPR, GDP-bound NRAS wild-type protein vs GDP-bound KRAS wild-type protein.
Sequence of GDP-bound NRAS wild-type protein (P01111 whole entry): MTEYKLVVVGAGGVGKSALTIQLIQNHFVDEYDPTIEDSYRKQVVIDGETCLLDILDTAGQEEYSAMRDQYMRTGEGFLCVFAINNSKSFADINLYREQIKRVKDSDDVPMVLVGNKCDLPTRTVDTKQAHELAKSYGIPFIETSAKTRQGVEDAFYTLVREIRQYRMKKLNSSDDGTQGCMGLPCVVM
Experiment [3] deals with GDP-bound HRAS wild-type protein (Homo sapiens, UniProt P01112). The experiment in a line: Binding to HRAS by surface plasmon resonance (SPR), Single Cycle Kinetics. Particulars: SPR, GDP-bound HRAS wild-type protein vs GDP-bound KRAS wild-type protein.
Sequence of GDP-bound HRAS wild-type protein (P01112 whole entry): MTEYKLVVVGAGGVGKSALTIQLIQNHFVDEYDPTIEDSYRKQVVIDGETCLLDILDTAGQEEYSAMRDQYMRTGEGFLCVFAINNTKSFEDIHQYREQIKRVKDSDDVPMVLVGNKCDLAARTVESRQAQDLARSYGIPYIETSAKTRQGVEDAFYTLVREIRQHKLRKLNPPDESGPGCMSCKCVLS

Broadly, the Kd is the constant that tells how readily two partners part at equilibrium. In the case of `CCO[C@@H]1C[C@H]2C(=O)NC3(CCC3)C(=O)N(C)[C@@H](C3CCCC3)C(=O)N(C)[C@H](C(=O)N(C)C)CC(=O)N(C)[C@@H](CC)C(=O)N[C@@H]([C@@H](C)CC)C(=O)N(C)CC(=O)N(C)[C@H]3C[C@H]4C[C@H]4CN(C3=O)[C@@H](Cc3ccc(C(F)(F)F)cc3)C(=O)N(C)CC(=O)N[C@@H](CCc3cc(F)c(C(F)(F)F)c(F)c3)C(=O)N2C1` [PP0830], in experiment [1], the Kd stood at 0.058 nM. In experiment [2], the “NRAS/KRAS (ratio of KD value for NRAS to KD value for KRAS)” value is “C (A compound having a KD ratio of 0.1 or more and less than 3 is denoted as C)”. Moreover, the “HRAS/KRAS (ratio of KD value for HRAS to KD value for KRAS)” value in experiment [3] was “C (A compound having a KD ratio of 0.1 or more and less than 3 is denoted as C)”.
Regarding `CCO[C@@H]1C[C@H]2C(=O)NC3(CC(F)(F)C3)C(=O)N(C)[C@@H](C3CCCC3)C(=O)N(C)[C@H](C(=O)N3CCOCC3)CC(=O)N(C)[C@@H](CC(C)C)C(=O)N[C@@H]([C@@H](C)CC)C(=O)N(C)CC(=O)N(C)[C@H]3C[C@H]4C[C@H]4CN(C3=O)[C@@H](Cc3ccc(C(F)(F)F)cc3)C(=O)N(C)CC(=O)N[C@@H](CCc3cc(F)c(C(F)(F)F)c(F)c3)C(=O)N2C1` [PP0831], the Kd in experiment [1] amounted to 0.32 nM. Moreover, in experiment [2], the “NRAS/KRAS (ratio of KD value for NRAS to KD value for KRAS)” value was “C (A compound having a KD ratio of 0.1 or more and less than 3 is denoted as C)”. For the same molecule, the “HRAS/KRAS (ratio of KD value for HRAS to KD value for KRAS)” value in experiment [3] is “C (A compound having a KD ratio of 0.1 or more and less than 3 is denoted as C)”.
Turning to `CCO[C@@H]1C[C@H]2C(=O)NC3(CCC3)C(=O)N(C)[C@@H](C3CCCC3)C(=O)N(C)[C@H](C(=O)N3CCOCC3)CC(=O)N(C)[C@@H](CC(C)C)C(=O)N[C@@H]([C@@H](C)CC)C(=O)N(C)CC(=O)N(C)[C@H]3CC=CCN(C3=O)[C@@H](Cc3ccc(C(F)(F)F)cc3)C(=O)N(C)CC(=O)N[C@@H](CCc3cc(F)c(C(F)(F)F)c(F)c3)C(=O)N2C1` [PP0832], the Kd in experiment [1] came to 0.21 nM. For the same molecule, the “NRAS/KRAS (ratio of KD value for NRAS to KD value for KRAS)” value in experiment [2] was “C (A compound having a KD ratio of 0.1 or more and less than 3 is denoted as C)”. Also, in experiment [3], the “HRAS/KRAS (ratio of KD value for HRAS to KD value for KRAS)” value was “C (A compound having a KD ratio of 0.1 or more and less than 3 is denoted as C)”.
Take `CC[C@H](C)[C@@H]1NC(=O)[C@H](COC)N(C)C(=O)C[C@@H](C(=O)N2CCOCC2)N(C)C(=O)[C@H](C2CCCC2)N(C)C(=O)C2(CCC2)NC(=O)[C@@H]2C[C@H](OC)CN2C(=O)[C@H](CCc2cc(F)c(C(F)(F)F)c(F)c2)NC(=O)CN(C)C(=O)[C@H](Cc2ccc(C(F)(F)F)cc2)N2CCCCC[C@@H](C2=O)N(C)C(=O)CN(C)C1=O` [PP0836]: in experiment [1], the Kd was 0.63 nM. Also, the “NRAS/KRAS (ratio of KD value for NRAS to KD value for KRAS)” value in experiment [2] is “B (a compound having 3 or more and less than 10 is denoted as B)”. Further, in experiment [3], the “HRAS/KRAS (ratio of KD value for HRAS to KD value for KRAS)” value was “B (a compound having 3 or more and less than 10 is denoted as B)”.
For the molecule `CC[C@H](C)[C@@H]1NC(=O)[C@H](COC)N(C)C(=O)C[C@@H](C(=O)N2CCOCC2)N(C)C(=O)[C@H](C2CCCC2)N(C)C(=O)C2(CCC2)NC(=O)[C@@H]2C[C@@H](OC)CN2C(=O)[C@H](CCc2cc(F)c(C(F)(F)F)c(F)c2)NC(=O)CN(C)C(=O)[C@H](Cc2ccc(C(F)(F)F)cc2)N2CCCCC[C@@H](C2=O)N(C)C(=O)CN(C)C1=O` [PP0837], the Kd in experiment [1] came out at 0.19 nM. Moreover, the “NRAS/KRAS (ratio of KD value for NRAS to KD value for KRAS)” value in experiment [2] was “B (a compound having 3 or more and less than 10 is denoted as B)”. Besides, the “HRAS/KRAS (ratio of KD value for HRAS to KD value for KRAS)” value in experiment [3] is “B (a compound having 3 or more and less than 10 is denoted as B)”.
Take `CCCO[C@@H]1C[C@H]2C(=O)NC3(CCC3)C(=O)N(C)[C@@H](C3CCCC3)C(=O)N(C)[C@H](C(=O)N3CCOCC3)CC(=O)N(C)[C@@H](COC)C(=O)N[C@@H]([C@@H](C)CC)C(=O)N(C)CC(=O)N(C)[C@H]3CCCCCN(C3=O)[C@@H](Cc3ccc(C(F)(F)F)cc3)C(=O)N(C)CC(=O)N[C@@H](CCc3cc(F)c(C(F)(F)F)c(F)c3)C(=O)N2C1` [PP0838]: the Kd in experiment [1] worked out at 0.53 nM. Also, the “NRAS/KRAS (ratio of KD value for NRAS to KD value for KRAS)” value in experiment [2] was “B (a compound having 3 or more and less than 10 is denoted as B)”. The “HRAS/KRAS (ratio of KD value for HRAS to KD value for KRAS)” value in experiment [3] was “B (a compound having 3 or more and less than 10 is denoted as B)”.
